Values quoted from earlier work, collected in patent US8642603B2, “Substituted dihydro and tetrahydro oxazolopyrimidinones, preparation and use thereof” (Sanofi, priority 2007, dated 2014).

Tests used:
[1] = test system: pentylenetetrazole- and picrotoxin-induced seizures; conditions: in vivo
[2] = test system: healthy human subjects; conditions: pretreatment
[3] = test system: DBA/2 mice
[4] = test system: some animal models
[5] = test system: positive and negative symptoms of schizophrenia; conditions: compared to placebo
[6] = test system: mice
[7] = test system: rat

N[C@@]1(C(=O)O)CC[C@H]2[C@H](C(=O)O)[C@H]21 [LY354740]
effect on pentylenetetrazole- and picrotoxin-induced seizures [1]: attenuates pentylenetetrazole- and picrotoxin-induced seizures
effect on disruption of working memory by ketamine [2]: attenuation of the disruptive effects

N[C@H](C(=O)O)c1ccc(C(=O)O)c(O)c1 [(S)-4-carboxy-3-hydroxyphenylglycine]
protection against audiogenic seizures [3]: protects against audiogenic seizures

N[C@]1(C(=O)O)[C@H]2[C@@H](C[C@H]1OCc1ccc(Cl)c(Cl)c1)[C@]2(F)C(=O)O [MGS0039]
antidepressant-like effects [4]: dose-dependent antidepressant-like effects

CSCC[C@H](N)C(=O)N[C@@]1(C(=O)O)CS(=O)(=O)[C@H]2[C@H](C(=O)O)[C@H]21 [LY2140023]
positive and negative symptoms of schizophrenia [5]: statistically significant improvements

Cc1c(OCc2cccc(-c3ccc(C(=O)O)cc3)c2)cc2c(c1C)C(=O)C(C1CCCC1)C2 (stereo not shown) [biphenyl-indanone A]
antipsychotic- and anxiolytic-like effects [6]: antipsychotic- and anxiolytic-like effects

N[C@@]1(C(=O)O)CO[C@H]2[C@H](C(=O)O)[C@H]21 [LY379268]
effect on REM sleep and fast EEG [7]: suppresses rapid eye movement (REM) sleep and fast EEG
